Values of other authors in US20170172905A1, “AGENT FOR TEMPORARILY RESHAPING KERATIN-CONTAINING FIBERS COMPRISING PRESERVATIVE” (Henkel AG & Co. KGaA, priority 2015, published 2017).

logP value: 5.25
Structure (SMILES): CCCCC(CC)CN1CN(CC(CC)CCCC)CC(C)(N)C1 (stereo not shown) [hexetidine, 5-amino-1,3-bis(2-ethylhexal)hexahydro-5-methylpyrimidine]
